Data from ChEMBL document CHEMBL1201862, “PubChem BioAssay data set” (2004).
Calls of active or inactive are those of the source.

How the values were obtained:
[1] = inhibitors of SNCA 5'UTR-driven reporter translation, confirmation, H4 neuroglioma cells, luminescence (AID 1988); format: functional, cell-based
[2] = target: T1, Replicative DNA helicase DnaB (Mycobacterium tuberculosis, UniProt P9WMR3); assay: DnaB intein splicing inhibitors, dose response, biochemical, cell-free fluorescence (AID 449749); format: functional
T1 sequence (P9WMR3 whole entry): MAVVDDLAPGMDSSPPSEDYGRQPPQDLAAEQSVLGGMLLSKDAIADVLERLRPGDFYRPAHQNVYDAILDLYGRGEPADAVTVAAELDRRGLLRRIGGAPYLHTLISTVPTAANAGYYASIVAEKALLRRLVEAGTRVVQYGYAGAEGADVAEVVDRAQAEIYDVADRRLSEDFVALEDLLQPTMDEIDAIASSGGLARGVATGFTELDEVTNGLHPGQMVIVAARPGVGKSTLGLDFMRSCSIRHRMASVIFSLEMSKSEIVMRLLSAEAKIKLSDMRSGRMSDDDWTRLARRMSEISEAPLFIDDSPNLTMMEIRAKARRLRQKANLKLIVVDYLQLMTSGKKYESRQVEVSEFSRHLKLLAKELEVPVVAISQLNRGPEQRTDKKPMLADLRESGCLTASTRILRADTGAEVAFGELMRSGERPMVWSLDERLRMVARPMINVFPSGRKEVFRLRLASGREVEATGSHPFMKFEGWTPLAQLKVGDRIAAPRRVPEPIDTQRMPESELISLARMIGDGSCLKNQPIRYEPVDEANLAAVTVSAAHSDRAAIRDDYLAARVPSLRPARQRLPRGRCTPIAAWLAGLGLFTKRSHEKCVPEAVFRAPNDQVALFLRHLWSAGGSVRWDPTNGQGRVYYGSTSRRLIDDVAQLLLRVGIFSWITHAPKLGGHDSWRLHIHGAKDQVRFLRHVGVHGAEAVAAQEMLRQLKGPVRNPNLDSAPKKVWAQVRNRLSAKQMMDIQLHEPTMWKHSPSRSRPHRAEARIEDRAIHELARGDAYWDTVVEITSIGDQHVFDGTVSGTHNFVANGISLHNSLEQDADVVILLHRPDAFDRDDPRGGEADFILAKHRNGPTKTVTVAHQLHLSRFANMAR

[3] = target: Megakaryocyte-associated tyrosine-protein kinase (Homo sapiens, UniProt P42679); format: functional;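 also: affinity measured as one member of a kinase panel (Navigating the Kinome) against MATK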
[4] = target: Tyrosine-protein kinase JAK2 (Homo sapiens, UniProt O60674); format: functional;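 also: JAK2 tested as one member of a kinase panel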
[5] = target: ALK tyrosine kinase receptor (Homo sapiens, UniProt Q9UM73); format: functional;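 also: ALK tested as one member of a kinase panel screen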
[6] = target: Proto-oncogene tyrosine-protein kinase receptor Ret (Homo sapiens, UniProt P07949); format: functional;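 also: measured within a kinome-wide profiling panel, RET as the panel member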
[7] = target: Serine/threonine-protein kinase D2 (Homo sapiens, UniProt Q9BZL6); format: functional;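 also: measured against PRKD2 as one member of a kinome-wide kinase profiling panel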
[8] = target: Death-associated protein kinase 3 (Homo sapiens, UniProt O43293); format: functional;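 also: measured as one member of a kinome-wide profiling panel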
[9] = target: Tyrosine-protein kinase JAK3 (Homo sapiens, UniProt P52333); format: functional
[10] = target: MAP/microtubule affinity-regulating kinase 3 (Homo sapiens, UniProt P27448); format: functional;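 also: MARK3 affinity measured as one member of a kinome panel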
[11] = target: Serine/threonine-protein kinase pim-3 (Homo sapiens, UniProt Q86V86); format: functional;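 also: value obtained as one member of a broad kinase panel profiling effort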
[12] = target: Protein kinase C gamma type (Homo sapiens, UniProt P05129); format: functional
Activated CDC42 kinase 1 = Activated CDC42 kinase 1 (Homo sapiens, UniProt Q07912); assay: Navigating the Kinome. Panel member name: ACK1; format: functional
[13] = target: Receptor-type tyrosine-protein kinase FLT3 (Homo sapiens, UniProt P36888); format: functional;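 also: FLT3 was tested as one member of a kinome-wide kinase panel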
Misshapen-like kinase 1 = Misshapen-like kinase 1 (Homo sapiens, UniProt Q8N4C8); format: functional;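 also: kinome panel screen with MINK as the panel member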
[14] = target: Dual specificity tyrosine-phosphorylation-regulated kinase 1B (Homo sapiens, UniProt Q9Y463); assay: Navigating the Kinome. Panel member name: DYRK1B; format: functional
[15] = target: Interleukin-1 receptor-associated kinase 1 (Homo sapiens, UniProt P51617); format: functional;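 also: IRAK1 tested as one member of a kinome panel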
[16] = target: Maternal embryonic leucine zipper kinase (Homo sapiens, UniProt Q14680); format: functional
[17] = target: Cyclin-dependent kinase 8 (Homo sapiens, UniProt P49336); assay: Navigating the Kinome. Panel member name: CDK8; format: functional
[18] = target: BDNF/NT-3 growth factors receptor (Homo sapiens, UniProt Q16620); format: functional;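 also: NTRK2 measured as one member of a broad kinome-wide kinase profiling panel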
[19] = target: Macrophage-stimulating protein receptor (Homo sapiens, UniProt Q04912); assay: Navigating the Kinome. Panel member name: MST1R; format: functional
[20] = target: Calcium/calmodulin-dependent protein kinase type II subunit alpha (Homo sapiens, UniProt Q9UQM7); assay: Navigating the Kinome. Panel member name: CAMK2A; format: functional
Caspase-3 = target: T2, Caspase-3 (Homo sapiens, UniProt P42574); assay: procaspase-3 activators, dose response, biochemical, absorbance (AID 489014)
T2 sequence (P42574 whole entry): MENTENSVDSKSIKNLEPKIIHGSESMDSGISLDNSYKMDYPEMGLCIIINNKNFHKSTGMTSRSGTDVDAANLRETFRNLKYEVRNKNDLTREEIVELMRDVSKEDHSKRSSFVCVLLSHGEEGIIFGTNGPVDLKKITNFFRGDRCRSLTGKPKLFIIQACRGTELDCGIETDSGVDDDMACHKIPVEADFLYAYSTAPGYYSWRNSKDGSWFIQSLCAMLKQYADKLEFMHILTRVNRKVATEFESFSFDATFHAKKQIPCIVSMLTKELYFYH

[21] = target: T3, Mannose-6-phosphate isomerase (Homo sapiens, UniProt P34949); assay: inhibitors of human PMI, primary screen, biochemical, fluorescence intensity, coupled assay (AID 1209)
T3 sequence (P34949 whole entry): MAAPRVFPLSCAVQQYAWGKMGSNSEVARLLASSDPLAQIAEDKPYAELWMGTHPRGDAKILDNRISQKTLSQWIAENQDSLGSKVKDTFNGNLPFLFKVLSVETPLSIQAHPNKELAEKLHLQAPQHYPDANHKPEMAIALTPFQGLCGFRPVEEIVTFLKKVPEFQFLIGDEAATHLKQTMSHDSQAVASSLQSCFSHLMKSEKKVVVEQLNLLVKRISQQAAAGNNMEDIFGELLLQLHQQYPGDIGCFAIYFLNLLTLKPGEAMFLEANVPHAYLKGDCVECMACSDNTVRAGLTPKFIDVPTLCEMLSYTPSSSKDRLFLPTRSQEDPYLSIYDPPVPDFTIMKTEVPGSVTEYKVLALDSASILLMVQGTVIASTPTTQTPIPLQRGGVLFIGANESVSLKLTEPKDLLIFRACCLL

Sequence of Tyrosine-protein kinase JAK3 (P52333 whole entry): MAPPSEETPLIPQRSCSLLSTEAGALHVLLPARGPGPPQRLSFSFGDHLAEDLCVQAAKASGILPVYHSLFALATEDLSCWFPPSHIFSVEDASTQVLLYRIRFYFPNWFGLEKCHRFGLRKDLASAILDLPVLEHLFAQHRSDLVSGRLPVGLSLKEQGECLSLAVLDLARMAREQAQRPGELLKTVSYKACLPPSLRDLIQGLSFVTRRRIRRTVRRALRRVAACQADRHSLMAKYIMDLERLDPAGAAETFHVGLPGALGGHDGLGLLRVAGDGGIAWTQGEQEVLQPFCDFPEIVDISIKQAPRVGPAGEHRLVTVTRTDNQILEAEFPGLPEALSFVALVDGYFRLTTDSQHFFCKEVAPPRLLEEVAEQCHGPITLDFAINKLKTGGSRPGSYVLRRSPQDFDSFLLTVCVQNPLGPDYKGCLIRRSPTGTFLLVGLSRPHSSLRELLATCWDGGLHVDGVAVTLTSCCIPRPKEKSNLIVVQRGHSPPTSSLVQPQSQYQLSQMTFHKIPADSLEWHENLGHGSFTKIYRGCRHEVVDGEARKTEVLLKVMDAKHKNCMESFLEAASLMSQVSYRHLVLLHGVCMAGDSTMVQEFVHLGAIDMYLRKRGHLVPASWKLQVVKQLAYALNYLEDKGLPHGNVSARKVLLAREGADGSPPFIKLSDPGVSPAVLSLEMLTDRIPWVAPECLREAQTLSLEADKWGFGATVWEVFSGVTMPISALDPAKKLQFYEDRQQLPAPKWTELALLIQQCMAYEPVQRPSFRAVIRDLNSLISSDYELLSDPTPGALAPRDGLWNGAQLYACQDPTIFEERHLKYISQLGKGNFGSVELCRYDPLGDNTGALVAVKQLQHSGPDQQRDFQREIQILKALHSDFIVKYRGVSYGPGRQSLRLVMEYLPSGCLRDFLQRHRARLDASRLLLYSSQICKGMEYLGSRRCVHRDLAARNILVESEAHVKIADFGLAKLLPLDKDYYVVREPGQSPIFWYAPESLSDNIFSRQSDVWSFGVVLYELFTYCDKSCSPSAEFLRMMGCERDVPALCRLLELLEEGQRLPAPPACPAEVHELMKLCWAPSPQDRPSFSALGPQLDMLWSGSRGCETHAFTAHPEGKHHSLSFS
Sequence of BDNF/NT-3 growth factors receptor (Q16620 whole entry): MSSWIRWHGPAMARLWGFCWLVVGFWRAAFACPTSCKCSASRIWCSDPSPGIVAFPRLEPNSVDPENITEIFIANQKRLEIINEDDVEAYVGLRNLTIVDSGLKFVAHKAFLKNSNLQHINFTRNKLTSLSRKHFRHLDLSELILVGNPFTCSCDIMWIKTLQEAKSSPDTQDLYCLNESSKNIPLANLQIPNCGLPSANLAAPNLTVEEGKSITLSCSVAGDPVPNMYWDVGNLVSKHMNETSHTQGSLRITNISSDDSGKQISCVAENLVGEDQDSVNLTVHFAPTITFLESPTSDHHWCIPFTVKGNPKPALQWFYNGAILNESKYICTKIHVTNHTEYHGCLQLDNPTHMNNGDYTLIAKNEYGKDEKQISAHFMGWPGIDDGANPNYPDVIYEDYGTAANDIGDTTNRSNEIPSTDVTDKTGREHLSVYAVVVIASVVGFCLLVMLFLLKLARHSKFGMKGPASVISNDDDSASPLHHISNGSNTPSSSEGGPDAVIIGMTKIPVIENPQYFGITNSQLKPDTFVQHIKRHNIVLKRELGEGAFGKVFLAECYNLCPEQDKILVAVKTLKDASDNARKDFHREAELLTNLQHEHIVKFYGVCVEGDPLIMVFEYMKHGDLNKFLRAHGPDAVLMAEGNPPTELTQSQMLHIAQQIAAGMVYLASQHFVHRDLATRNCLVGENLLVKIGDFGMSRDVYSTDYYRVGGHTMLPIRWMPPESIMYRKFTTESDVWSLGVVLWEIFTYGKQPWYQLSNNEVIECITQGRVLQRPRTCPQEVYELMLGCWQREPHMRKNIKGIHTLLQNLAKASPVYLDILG
Sequence of Dual specificity tyrosine-phosphorylation-regulated kinase 1B (Q9Y463 whole entry): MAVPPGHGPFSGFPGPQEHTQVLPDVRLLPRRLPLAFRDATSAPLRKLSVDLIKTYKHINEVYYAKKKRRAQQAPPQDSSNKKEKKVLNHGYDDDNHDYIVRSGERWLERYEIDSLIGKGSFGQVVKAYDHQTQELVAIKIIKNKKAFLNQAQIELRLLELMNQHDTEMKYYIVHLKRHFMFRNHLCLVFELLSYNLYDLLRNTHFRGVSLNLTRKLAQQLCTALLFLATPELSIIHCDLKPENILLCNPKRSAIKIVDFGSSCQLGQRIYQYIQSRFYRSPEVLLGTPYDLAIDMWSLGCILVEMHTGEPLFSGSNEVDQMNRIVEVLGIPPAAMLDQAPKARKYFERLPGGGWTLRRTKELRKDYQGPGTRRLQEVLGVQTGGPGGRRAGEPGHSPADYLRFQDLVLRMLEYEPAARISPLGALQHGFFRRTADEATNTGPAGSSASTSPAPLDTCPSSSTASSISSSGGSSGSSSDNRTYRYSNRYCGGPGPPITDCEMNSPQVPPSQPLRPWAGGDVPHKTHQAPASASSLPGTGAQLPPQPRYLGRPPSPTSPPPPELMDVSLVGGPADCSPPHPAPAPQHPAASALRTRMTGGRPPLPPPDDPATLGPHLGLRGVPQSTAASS
Sequence of Activated CDC42 kinase 1 (Q07912 whole entry): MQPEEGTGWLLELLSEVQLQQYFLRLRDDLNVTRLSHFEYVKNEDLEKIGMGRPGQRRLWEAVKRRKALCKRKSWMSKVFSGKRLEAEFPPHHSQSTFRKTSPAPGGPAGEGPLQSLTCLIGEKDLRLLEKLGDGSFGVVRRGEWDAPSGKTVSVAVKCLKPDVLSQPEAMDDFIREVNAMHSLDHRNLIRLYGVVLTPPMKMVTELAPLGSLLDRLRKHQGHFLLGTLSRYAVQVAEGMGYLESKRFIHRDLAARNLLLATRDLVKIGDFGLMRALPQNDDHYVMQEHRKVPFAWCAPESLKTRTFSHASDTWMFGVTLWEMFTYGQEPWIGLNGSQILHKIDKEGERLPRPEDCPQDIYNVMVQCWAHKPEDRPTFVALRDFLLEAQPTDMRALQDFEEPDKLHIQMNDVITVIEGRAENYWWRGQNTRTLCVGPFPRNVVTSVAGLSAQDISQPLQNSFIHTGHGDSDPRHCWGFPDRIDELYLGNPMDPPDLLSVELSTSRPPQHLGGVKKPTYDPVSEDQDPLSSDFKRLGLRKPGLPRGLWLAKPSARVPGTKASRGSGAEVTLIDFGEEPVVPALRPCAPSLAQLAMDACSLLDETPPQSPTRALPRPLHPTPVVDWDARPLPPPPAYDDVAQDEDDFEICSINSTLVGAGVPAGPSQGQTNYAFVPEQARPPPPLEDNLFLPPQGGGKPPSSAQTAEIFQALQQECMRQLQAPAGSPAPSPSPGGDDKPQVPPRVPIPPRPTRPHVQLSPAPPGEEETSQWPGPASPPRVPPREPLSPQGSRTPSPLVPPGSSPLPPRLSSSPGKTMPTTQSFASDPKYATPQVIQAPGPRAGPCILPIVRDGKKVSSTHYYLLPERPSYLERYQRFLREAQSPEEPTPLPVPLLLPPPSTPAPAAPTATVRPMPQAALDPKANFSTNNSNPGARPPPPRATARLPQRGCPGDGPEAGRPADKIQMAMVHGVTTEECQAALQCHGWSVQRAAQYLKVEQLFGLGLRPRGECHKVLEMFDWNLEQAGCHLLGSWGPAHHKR
Sequence of Interleukin-1 receptor-associated kinase 1 (P51617 whole entry): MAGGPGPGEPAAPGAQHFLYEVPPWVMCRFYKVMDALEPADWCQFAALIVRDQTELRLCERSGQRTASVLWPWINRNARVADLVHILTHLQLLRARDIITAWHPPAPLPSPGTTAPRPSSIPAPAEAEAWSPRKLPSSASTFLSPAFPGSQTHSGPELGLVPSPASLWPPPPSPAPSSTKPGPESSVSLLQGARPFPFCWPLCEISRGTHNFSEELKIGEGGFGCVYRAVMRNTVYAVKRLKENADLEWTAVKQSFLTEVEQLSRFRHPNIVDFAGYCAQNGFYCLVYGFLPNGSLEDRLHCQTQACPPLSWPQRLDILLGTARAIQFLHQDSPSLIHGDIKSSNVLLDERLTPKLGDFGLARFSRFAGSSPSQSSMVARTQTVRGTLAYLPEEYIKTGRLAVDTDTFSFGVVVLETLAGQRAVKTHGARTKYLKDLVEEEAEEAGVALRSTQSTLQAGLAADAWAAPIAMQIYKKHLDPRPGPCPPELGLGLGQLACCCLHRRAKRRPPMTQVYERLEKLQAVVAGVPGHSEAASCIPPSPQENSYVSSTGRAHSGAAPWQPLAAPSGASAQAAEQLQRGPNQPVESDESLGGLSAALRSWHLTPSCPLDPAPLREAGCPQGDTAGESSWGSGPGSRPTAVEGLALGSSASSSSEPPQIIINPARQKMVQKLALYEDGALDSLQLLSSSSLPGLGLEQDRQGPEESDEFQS
Sequence of Megakaryocyte-associated tyrosine-protein kinase (P42679 whole entry): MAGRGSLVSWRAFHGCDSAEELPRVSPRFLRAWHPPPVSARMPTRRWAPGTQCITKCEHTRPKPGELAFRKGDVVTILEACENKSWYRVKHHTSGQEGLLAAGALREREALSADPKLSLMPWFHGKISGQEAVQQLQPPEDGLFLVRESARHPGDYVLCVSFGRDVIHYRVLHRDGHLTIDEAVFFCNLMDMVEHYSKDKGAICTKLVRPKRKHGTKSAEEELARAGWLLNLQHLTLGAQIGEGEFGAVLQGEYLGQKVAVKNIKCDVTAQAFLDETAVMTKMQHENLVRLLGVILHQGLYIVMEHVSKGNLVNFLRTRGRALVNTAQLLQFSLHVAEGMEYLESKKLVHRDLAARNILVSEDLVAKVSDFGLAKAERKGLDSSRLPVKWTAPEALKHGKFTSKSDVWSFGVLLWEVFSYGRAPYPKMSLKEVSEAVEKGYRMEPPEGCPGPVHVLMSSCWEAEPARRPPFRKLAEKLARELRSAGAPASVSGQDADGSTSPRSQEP

For `NS(=O)(=O)c1ccc(NC2=CC(=O)C(=O)c3ccccc32)cc1`, which EC50 [1] is on record?
Its EC50 is 8450 nM (active).

And the AC50 [2]?
The AC50 was 1840 nM (active).

With `Clc1cc(-c2c[nH]c3ncccc23)nc(NC2CCCCC2)n1` as the compound, how does the Ki [3] read?
The Ki was > 2000 nM (inactive).

What about the Ki [4] of the same compound?
The Ki was > 2510 nM (inactive).

What about the Ki [5] of the same compound?
The Ki was > 3980 nM (inactive).

And the Ki [6]?
Its Ki is > 2000 nM (inactive).

And the Ki [7]?
The Ki was 200 nM (active).

What about the Ki [8] of the same compound?
Its Ki is 501 nM (active).

And the Ki [9]?
The Ki was > 3160 nM (inactive).

What about the Ki [10] of the same compound?
The Ki was 158 nM (active).

And the Ki [11]?
The Ki was > 7940 nM (inactive).

And the Ki [12]?
The Ki was 1000 nM (active).

What about the Ki (Activated CDC42 kinase 1) of the same compound?
The Ki was > 3980 nM (inactive).

What about the Ki [13] of the same compound?
Its Ki is > 1000 nM (inactive).

And the Ki (Misshapen-like kinase 1)?
The Ki was 7.94 nM (active).

And the Ki [14]?
The Ki was 7.94 nM (active).

And the Ki [15]?
The Ki was 50.1 nM (active).

What about the Ki [16] of the same compound?
Its Ki is 316 nM (active).

What about the Ki [17] of the same compound?
The Ki was 3.98 nM (active).

And the Ki [18]?
Its Ki is 2000 nM (active).

And the Ki [19]?
Its Ki is > 3980 nM (inactive).

What about the Ki [20] of the same compound?
The Ki was 3160 nM (active).

For `O=C(N/N=C/c1ccc(O)cc1O)c1ccc(CN2C(=O)c3cccc4cccc2c34)cc1`, which EC50 (Caspase-3) is on record?
The EC50 was > 85300 nM (inactive).

With `CC(C)N(C(=O)Nc1ccc2nsnc2c1)C(C)C` as the compound, how does the IC50 [21] read?
Its IC50 is > 50000 nM (not active).
